Activity calls are given as the source filed them. The calls are words filed in the database; no cut-off is given here. Square brackets hold non-standard residues; d marks the D form. Peptide text beside a SMILES is read from it. ξ: configuration not given here. ξpS = NC(COP(=O)(O)O)C(=O)O
Experiments:
Caspase-3 (Homo sapiens) [1] = molecular target: T1, Caspase-3 (Homo sapiens) (UniProt P42574); experiment: Substrate activity at recombinant human caspase-3 assessed as enzyme-mediated compound cleavage after 1 hr by RP-HPLC analysis
T1 sequence (whole entry): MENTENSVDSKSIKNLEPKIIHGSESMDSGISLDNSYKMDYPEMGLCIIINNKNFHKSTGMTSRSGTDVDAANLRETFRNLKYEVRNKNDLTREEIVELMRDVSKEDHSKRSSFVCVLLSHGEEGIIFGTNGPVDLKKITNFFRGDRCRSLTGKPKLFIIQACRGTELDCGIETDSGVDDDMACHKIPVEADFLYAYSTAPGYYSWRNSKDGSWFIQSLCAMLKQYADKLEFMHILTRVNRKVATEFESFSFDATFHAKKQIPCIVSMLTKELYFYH

Caspase-3 (Homo sapiens) [2] = molecular target: T1, Caspase-3 (Homo sapiens); experiment: Inhibition of recombinant human caspase-3 at 50 uM using fluorogenic peptide substrate Ac-DEVD-MCA after 30 mins incubation by spectrofluorometric method
[3] = Retention time of the compound by mass spectrometric analysis; assay type: physicochemical
Caspase-3 (Homo sapiens) [4] = molecular target: T1, Caspase-3 (Homo sapiens); experiment: Substrate activity at recombinant human caspase-3 assessed as Ac-STGSIDMVD-OH formation after 1 hr by RP-HPLC analysis
Caspase-3 (Homo sapiens) [5] = molecular target: T1, Caspase-3 (Homo sapiens); experiment: Substrate activity at recombinant human caspase-3 assessed as Ac-STGSIDMVD-OH formation after 1 hr by MALDI-TOF/MS analysis
Caspase-3 (Homo sapiens) [6] = molecular target: T1, Caspase-3 (Homo sapiens); experiment: Substrate activity at recombinant human caspase-3 assessed as SPQL-CONH2 formation after 1 hr by RP-HPLC analysis
Caspase-3 (Homo sapiens) [7] = molecular target: T1, Caspase-3 (Homo sapiens); experiment: Substrate activity at recombinant human caspase-3 assessed as SPQLAT-CONH2 formation after 1 hr by RP-HPLC analysis
Caspase-3 (Homo sapiens) [8] = molecular target: T1, Caspase-3 (Homo sapiens); experiment: Substrate activity at recombinant human caspase-3 assessed as SPQLAT-CONH2 formation after 1 hr by MALDI-TOF/MS analysis
Caspase-3 (Homo sapiens) [9] = molecular target: T1, Caspase-3 (Homo sapiens); experiment: Substrate activity at recombinant human caspase-3 assessed as SIDMVD formation after 1 hr by RP-HPLC analysis
Caspase-3 (Homo sapiens) [10] = molecular target: T1, Caspase-3 (Homo sapiens); experiment: Substrate activity at recombinant human caspase-3 assessed as SIDMVD formation after 1 hr by MALDI-TOF/MS analysis
Caspase-3 (Homo sapiens) [11] = molecular target: T1, Caspase-3 (Homo sapiens); experiment: Substrate activity at 3-fold excess recombinant human caspase-3 assessed as SIDMVD formation by RP-HPLC analysis; details: TDE = time-dependent effect
Caspase-3 (Homo sapiens) [12] = molecular target: T1, Caspase-3 (Homo sapiens); experiment: Substrate activity at 3-fold excess recombinant human caspase-3 assessed as SPQLAT formation by RP-HPLC analysis; details: TDE = time-dependent effect
Caspase-3 (Homo sapiens) [13] = molecular target: T1, Caspase-3 (Homo sapiens); experiment: Substrate activity at recombinant human caspase-3 assessed as enzyme-mediated compound cleavage after 1 hr in presence of casapase-3 inhibitor Ac-DQVD-aldehyde by RP-HPLC analysis

Row | Activity (Caspase-3 (Homo sapiens) [1]) | Retention_time [3] | Compound | other results
1 | Active | – | CC[C@H](C)[C@H](NC(=O)[C@H](CO)NC(=O)CNC(=O)[C@@H](NC(=O)[C@H](CO)NC(C)=O)[C@@H](C)O)C(=O)N[C@@H](CC(=O)O)C(=O)N[C@@H](CCSC)C(=O)N[C@H](C(=O)N[C@@H](CC(=O)O)C(=O)N[C@H](CO)C(=O)N1CCC[C@H]1C(=O)N[C@@H](CCC(N)=O)C(=O)N[C@@H](CC(C)C)C(=O)N[C@@H](C)C(N)=O)C(C)C | –
2 | inactive | – | CC[C@H](C)[C@H](NC(=O)[C@H](CO)NC(=O)CNC(=O)[C@@H](NC(=O)[C@H](CO)NC(C)=O)[C@@H](C)O)C(=O)N[C@@H](CC(=O)O)C(=O)N[C@@H](CCSC)C(=O)N[C@H](C(=O)N[C@H](CC(=O)O)C(=O)N[C@@H](CO)C(=O)N1CCC[C@H]1C(=O)N[C@@H](CCC(N)=O)C(=O)N[C@@H](CC(C)C)C(=O)N[C@@H](C)C(N)=O)C(C)C | –
3 | – | – | CC(=O)N[C@@H](CC(=O)O)C(=O)N[C@@H](CCC(N)=O)C(=O)N[C@H](C(=O)N[C@H](C=O)CC(=O)O)C(C)C (Ac-DQVD-aldehyde) | inhibition (Caspase-3 (Homo sapiens) [2]): 97.3%
4 | – | 30.6 min | CC[C@H](C)[C@H](NC(=O)[C@H](CO)NC(=O)CNC(=O)[C@@H](NC(=O)[C@H](CO)NC(C)=O)[C@@H](C)O)C(=O)N[C@@H](CC(=O)O)C(=O)N[C@@H](CCSC)C(=O)N[C@H](C(=O)N[C@@H](CC(=O)O)C(=O)O)C(C)C (Ac-STGSIDMVD-OH) | –
5 | – | 31.8 min | CC[C@H](C)[C@H](NC(=O)[C@H](CO)NC(=O)CNC(=O)[C@@H](NC(=O)[C@H](CO)NC(C)=O)[C@@H](C)O)C(=O)N[C@@H](CC(=O)O)C(=O)N[C@@H](CCSC)C(=O)N[C@H](C(=O)N[C@@H](CC(=O)O)C(=O)N[C@@H](CO)C(=O)N1CCC[C@H]1C(=O)N[C@@H](CCC(N)=O)C(=O)N[C@@H](CC(C)C)C(N)=O)C(C)C (Ac-STGSIDMVDSPQL-NH2) | Activity (Caspase-3 (Homo sapiens) [4]): Active; Activity (Caspase-3 (Homo sapiens) [5]): Active; Activity (Caspase-3 (Homo sapiens) [6]): Active
6 | inactive | – | CC[C@H](C)[C@H](NC(=O)[C@H](CO)NC(=O)CNC(=O)[C@@H](NC(=O)[C@H](CO)NC(C)=O)[C@@H](C)O)C(=O)N[C@@H](CC(=O)O)C(=O)N[C@@H](CCSC)C(=O)N[C@H](C(=O)N[C@@H](CC(=O)O)C(=O)NC(COP(=O)(O)O)C(=O)N1CCC[C@H]1C(=O)N[C@@H](CCC(N)=O)C(=O)N[C@@H](CC(C)C)C(=O)N[C@@H](C)C(N)=O)C(C)C (some centres not stated) (Ac-STGSIDMVD[ξpS]PQLA-NH2) | –
7 | – | 18.1 min | CC[C@H](C)[C@H](NC(=O)[C@@H](N)CO)C(=O)N[C@@H](CC(=O)O)C(=O)N[C@@H](CCSC)C(=O)N[C@H](C(=O)N[C@@H](CC(=O)O)C(=O)O)C(C)C (H-SIDMVD-OH) | –
8 | – | 27.9 min | CC[C@H](C)[C@H](NC(=O)[C@@H](N)CO)C(=O)N[C@@H](CC(=O)O)C(=O)N[C@@H](CCSC)C(=O)N[C@H](C(=O)N[C@@H](CC(=O)O)C(=O)N[C@@H](CO)C(=O)N1CCC[C@H]1C(=O)N[C@@H](CCC(N)=O)C(=O)N[C@@H](CC(C)C)C(=O)N[C@@H](C)C(=O)N[C@H](C(N)=O)[C@@H](C)O)C(C)C (H-SIDMVDSPQLAT-NH2) | Activity (Caspase-3 (Homo sapiens) [7]): Active; Activity (Caspase-3 (Homo sapiens) [8]): Active; Activity (Caspase-3 (Homo sapiens) [9]): Active; Activity (Caspase-3 (Homo sapiens) [10]): Active; Activity (Caspase-3 (Homo sapiens) [11]): Tde; Activity (Caspase-3 (Homo sapiens) [12]): Tde; Activity (Caspase-3 (Homo sapiens) [13]): inactive
9 | inactive | 26.3 min | CC[C@H](C)[C@H](NC(=O)[C@@H](N)CO)C(=O)N[C@@H](CC(=O)O)C(=O)N[C@@H](CCSC)C(=O)N[C@H](C(=O)N[C@@H](CC(=O)O)C(=O)NC(COP(=O)(O)O)C(=O)N1CCC[C@H]1C(=O)N[C@@H](CCC(N)=O)C(=O)N[C@@H](CC(C)C)C(=O)N[C@@H](C)C(=O)N[C@H](C(N)=O)[C@@H](C)O)C(C)C (some centres not stated) (H-SIDMVD[ξpS]PQLAT-NH2) | –
10 | – | 19.5 min | CC(C)C[C@H](NC(=O)[C@H](CCC(N)=O)NC(=O)[C@@H]1CCCN1C(=O)[C@@H](N)CO)C(N)=O (H-SPQL-NH2) | –
11 | – | 25.7 min | CC(C)C[C@H](NC(=O)[C@H](CCC(N)=O)NC(=O)[C@@H]1CCCN1C(=O)[C@@H](N)CO)C(=O)N[C@@H](C)C(=O)N[C@H](C(N)=O)[C@@H](C)O (H-SPQLAT-NH2) | –

Reference: ChEMBL document CHEMBL4177523, “Ser422 phosphorylation blocks human Tau cleavage by caspase-3: Biochemical implications to Alzheimer's Disease” (Bioorg Med Chem Lett, 2017)
